# Reference: ChEMBL document CHEMBL1201862, “PubChem BioAssay data set” (2004)
#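 A five-concentration, 48-hour dose response in 96-well plates underlies each endpoint, interpolated linearly between surrounding concentrations. Abbreviation: GI50, concentration required for 50% inhibition of growth.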 Active and inactive are the calls of the source. Cut-off read from the data, not from the text of the source: active = GI50 up to about 1.1 µM and inactive = higher.
# How the values were obtained:
# Test in all cases: inhibition of tumour cell growth, NCI panel, 48 h
# HOP-92 = tested on: HOP-92
# Malme-3M = tested on: Malme-3M
# OVCAR-5 = tested on: OVCAR-5
# NCI-H460 = tested on: NCI-H460
# SNB-19 = tested on: SNB-19
# SF-295 = tested on: SF-295
# SNB-78 = tested on: SNB-78
# HOP-62 = tested on: HOP-62
# HCC 2998 = tested on: HCC 2998
# XF498 = tested on: XF498
# UO-31 = tested on: UO-31
# NCI-H23 = tested on: NCI-H23
# DMS-273 = tested on: DMS-273
# SF-268 = tested on: SF-268
# SK-MEL-2 = tested on: SK-MEL-2
# HOP-18 = tested on: HOP-18
# HCT-15 = tested on: HCT-15
# MOLT-4 = tested on: MOLT-4
# UACC-62 = tested on: UACC-62
# RXF 393 = tested on: RXF 393
# RPMI-8226 = tested on: RPMI-8226
# M19-MEL = tested on: M19-MEL
# COLO 205 = tested on: COLO 205
# HL-60 = tested on: HL-60
# OVCAR-4 = tested on: OVCAR-4
# A549 = tested on: A549
# NCI/ADR-RES = tested on: NCI/ADR-RES
# U-251 = tested on: U-251
# NCI-H226 = tested on: NCI-H226
# OVCAR-8 = tested on: OVCAR-8
# EKVX = tested on: EKVX
# SNB-75 = tested on: SNB-75
# CCRF-CEM = tested on: CCRF-CEM
# KM-20L2 = tested on: KM-20L2
# A498 = tested on: A498
# KM12 = tested on: KM12
# K562 = tested on: K562
# NCI-H522 = tested on: NCI-H522
# CAKI-1 = tested on: CAKI-1
# MCF7 = tested on: MCF7
# SN12C = tested on: SN12C
# DMS-114 = tested on: DMS-114
# SK-MEL-28 = tested on: SK-MEL-28
# OVCAR-3 = tested on: OVCAR-3
# DLD-1 = tested on: DLD-1
# SK-MEL-5 = tested on: SK-MEL-5
# LOX IMVI = tested on: LOX IMVI
# HCT-116 = tested on: HCT-116
# HT-29 = tested on: HT-29
# SW-620 = tested on: SW-620
# SF-539 = tested on: SF-539
# SK-OV-3 = tested on: SK-OV-3
# IGROV-1 = tested on: IGROV-1
# UACC-257 = tested on: UACC-257
smiles,measurement,setting,value
CCOC(=O)/C=C/c1c[nH]c(C(=O)OCC)c1,GI50,HOP-92,> 100 µM (inactive)
same,GI50,Malme-3M,> 100 µM (inactive)
same,GI50,OVCAR-5,> 100 µM (inactive)
same,GI50,NCI-H460,> 100 µM (inactive)
same,GI50,SNB-19,> 100 µM (inactive)
same,GI50,SF-295,> 100 µM (inactive)
same,GI50,SNB-78,> 86.1 µM (inactive)
same,GI50,HOP-62,> 100 µM (inactive)
same,GI50,HCC 2998,> 100 µM (inactive)
same,GI50,XF498,> 95.1 µM (inactive)
same,GI50,UO-31,> 100 µM (inactive)
same,GI50,NCI-H23,> 100 µM (inactive)
same,GI50,DMS-273,> 100 µM (inactive)
same,GI50,SF-268,> 100 µM (inactive)
same,GI50,SK-MEL-2,> 100 µM (inactive)
same,GI50,HOP-18,> 100 µM (inactive)
same,GI50,HCT-15,> 100 µM
same,GI50,MOLT-4,> 100 µM (inactive)
same,GI50,UACC-62,> 69.3 µM (inactive)
same,GI50,RXF 393,> 100 µM (inactive)
same,GI50,RPMI-8226,> 100 µM (inactive)
same,GI50,M19-MEL,> 100 µM (inactive)
same,GI50,COLO 205,> 100 µM (inactive)
same,GI50,HL-60,> 100 µM (inactive)
same,GI50,OVCAR-4,> 100 µM (inactive)
same,GI50,A549,> 100 µM (inactive)
same,GI50,NCI/ADR-RES,> 100 µM (inactive)
same,GI50,U-251,> 100 µM (inactive)
same,GI50,NCI-H226,> 100 µM (inactive)
same,GI50,OVCAR-8,> 100 µM (inactive)
same,GI50,EKVX,> 85.7 µM (inactive)
same,GI50,SNB-75,> 66.1 µM (inactive)
same,GI50,CCRF-CEM,> 100 µM (inactive)
same,GI50,KM-20L2,> 100 µM (inactive)
same,GI50,A498,> 100 µM (inactive)
same,GI50,KM12,> 100 µM (inactive)
same,GI50,K562,51.5 µM (inactive)
same,GI50,NCI-H522,> 90.8 µM (inactive)
same,GI50,CAKI-1,> 100 µM (inactive)
same,GI50,MCF7,> 100 µM (inactive)
same,GI50,SN12C,> 100 µM (inactive)
same,GI50,DMS-114,> 100 µM (inactive)
same,GI50,SK-MEL-28,> 100 µM (inactive)
same,GI50,OVCAR-3,> 100 µM (inactive)
same,GI50,DLD-1,> 100 µM (inactive)
same,GI50,SK-MEL-5,> 100 µM (inactive)
same,GI50,LOX IMVI,> 100 µM (inactive)
same,GI50,HCT-116,> 100 µM (inactive)
same,GI50,HT-29,> 100 µM (inactive)
same,GI50,SW-620,> 100 µM (inactive)
same,GI50,SF-539,> 100 µM (inactive)
same,GI50,SK-OV-3,> 100 µM (inactive)
same,GI50,IGROV-1,> 100 µM (inactive)
same,GI50,UACC-257,> 100 µM (inactive)
